Measurements reported in patent publication US8318455B2, “Inducible/regulated gene expression system in E coli” (priority 2007, dated 2012).
Read-outs that look alike come from different tables or passages of the source.

How the values were obtained:
[1] = test system: GFP expression in E. coli BL21(DE3)pLysS; assay type: cell-based, Escherichia coli; details: for GFP yield / course of induced GFP expression (time of maximum): 100 μm inducer; for state of the induced culture (lysis, foaming): fermenter culture, after 8 hours post induction; for specific yield of GFP / total yield of GFP: defined medium A; for course of induced GFP expression (time of maximum): post induction, FIG. 10A
Protocol: Benchtop Fermentations. Batch fermentation experiments were carried out in a 14-I bioreactor (BioFlo 110, New Brunswick Scientific, Edison, N.J. USA) to compare GFP production yield between T7 expression system and cumate system. For the batch culture, pre-cultures were used to inoculate the bioreactor filled with 5 l of medium A (Yoon et al, 2003) and initial O.D. was adjusted to 0.1 for both expression systems. The cultures induced with IPTG for T7 system and cumate for cumate system when O.D. reached at 38 to 42. For cultures carried out in bioreactors, pH and dissolved oxygen were controlled at 7 and 25%, respectively.
(§1) Detection of gene expression. Detection of GFP was carried out by fluorescence microscopy, and quantified by using a SPECTRAFluor Plus (TECAN Austria Gmbh, Grodïg, Austria) under excitation and emission wavelengths of 485 and 508 nm, respectively. Concentration of GFP was calculated based on a linear relationship between concentration and fluorescence units determined using solutions of purified GFP (Qbiogene). The biomass (X) was determined by cell dry weight measurement of the samples (Moisture Analyzer MA 30, Sartorius).
All results obtained were in defined medium A. The value ‘x’ is dry weight in g/L.
All results obtained were in defined medium A.

[2] = test system: GFP expression in host cells; experiment: Plate assay: GFP expression, T7 system vs cumate system; assay type: cell-based, Escherichia coli; details: plates with IPTG (1 mM) or cumate (0.12 mM); FIG. 4
Protocol: Host cell transformation and gene expression. pNEW vectors harbouring different genes of interest were transformed into various E. coli cells by chemical or electroporation methods (Sambrook and Russell, 2000). The transformed cells were grown at 37° C. in LB medium, and expression of genes under developed system was induced with 20 μg/ml cumate or as indicated.
as §1
FIG. 4 depicts a comparison between T7 system and cumate system for GFP expression in plates containing IPTG (1 mM) and cumate (0.12 mM) as inducer, respectively.

[3] = 45 minutes post induction, FIG. 9C
[4] = 2 hours post induction, FIG. 9E
[5] = 3 hours post induction, FIG. 9F
[6] = inducer 100 μM, induction time 1 h
[7] = inducer 100 μM, induction time 2 h
[8] = inducer 100 μM, induction time 4 h
[9] = inducer 100 μM, induction time 5 h
[10] = inducer 100 μM, induction time 6 h
[11] = inducer 100 μM, induction time 7 h
[12] = inducer 100 μM, induction time 8 h
[13] = inducer 100 μM, induction time 9 h
[14] = inducer 1000 μM, induction time 1 h
[15] = inducer 1000 μM, induction time 2 h
[16] = inducer 1000 μM, induction time 4 h
[17] = inducer 1000 μM, induction time 5 h
[18] = inducer 1000 μM, induction time 6 h
[19] = inducer 1000 μM, induction time 7 h
[20] = inducer 1000 μM, induction time 8 h
[21] = inducer 1000 μM, induction time 9 h

SMILES	GFP yield [1, 3]	GFP yield ([1]; 1 hour post induction, FIG. 9D)	GFP yield [1, 4]	GFP yield [1, 5]	state of the induced culture (lysis, foaming) [1]	specific yield of GFP [1, 6]	total yield of GFP [1, 6]	specific yield of GFP [1, 7]	total yield of GFP [1, 7]	specific yield of GFP [1, 8]	total yield of GFP [1, 8]	specific yield of GFP [1, 9]	total yield of GFP [1, 9]	specific yield of GFP [1, 10]	total yield of GFP [1, 10]	specific yield of GFP [1, 11]	total yield of GFP [1, 11]	specific yield of GFP [1, 12]	total yield of GFP [1, 12]	specific yield of GFP [1, 13]	further results
CC(C)c1ccc(C(=O)O)cc1 [Cumate, p-cumate]	30 mg/g	38 mg/g	84 mg/g	123 mg/g	no lysis occurred	38 mg/g x	602 mg/L	84 mg/g x	644 mg/L	123 mg/g x	3002 mg/L	164 mg/g x	4719 mg/L	176 mg/g x	5443 mg/L	165 mg/g x	6194 mg/L	193 mg/g x	6977 mg/L	222 mg/g x	cumate induced GFP yield relative to IPTG induced culture ([1]; cultures induced with 1000 μM IPTG or cumate): more than double; total yield of GFP [1, 13]: 7838 mg/L; specific yield of GFP [1, 14]: 36 mg/g x; total yield of GFP [1, 14]: 486 mg/L; specific yield of GFP [1, 15]: 71 mg/g x; total yield of GFP [1, 15]: 1459 mg/L; specific yield of GFP [1, 16]: 110 mg/g x; total yield of GFP [1, 16]: 2851 mg/L; specific yield of GFP [1, 17]: 141 mg/g x; total yield of GFP [1, 17]: 4593 mg/L; specific yield of GFP [1, 18]: 149 mg/g x; total yield of GFP [1, 18]: 4885 mg/L; specific yield of GFP [1, 19]: 155 mg/g x; total yield of GFP [1, 19]: 5989 mg/L; specific yield of GFP [1, 20]: 249 mg/g x; total yield of GFP [1, 20]: 9666 mg/L; specific yield of GFP [1, 21]: 289 mg/g x; total yield of GFP [1, 21]: 11150 mg/L; course of induced GFP expression (time of maximum) [1]: > 8 h; GFP expression on plates, comparison of systems [2]: dramatically outperforms the IPTG system
CC(C)S[C@@H]1O[C@H](CO)[C@H](O)[C@H](O)[C@H]1O [IPTG, isopropyl-beta-D-thiogalactopyranoside]	27 mg/g	37 mg/g	74 mg/g	90 mg/g	quickly began to lyse	37 mg/g x	554 mg/L	74 mg/g x	1300 mg/L	90 mg/g x	1778 mg/L	96 mg/g x	2486 mg/L	85 mg/g x	2035 mg/L	58 mg/g x	1567 mg/L	68 mg/g x	1948 mg/L	67 mg/g x	total yield of GFP [1, 13]: 2090 mg/L; specific yield of GFP [1, 14]: 37 mg/g x; total yield of GFP [1, 14]: 606 mg/L; specific yield of GFP [1, 15]: 60 mg/g x; total yield of GFP [1, 15]: 1191 mg/L; specific yield of GFP [1, 16]: 83 mg/g x; total yield of GFP [1, 16]: 1966 mg/L; specific yield of GFP [1, 17]: 103 mg/g x; total yield of GFP [1, 17]: 2464 mg/L; specific yield of GFP [1, 18]: 118 mg/g x; total yield of GFP [1, 18]: 3340 mg/L; specific yield of GFP [1, 19]: 135 mg/g x; total yield of GFP [1, 19]: 4238 mg/L; specific yield of GFP [1, 20]: 145 mg/g x; total yield of GFP [1, 20]: 4079 mg/L; course of induced GFP expression (time of maximum) [1]: 4 h
